The results in this text go back to patent US4820695A, “C-20-dihydro-deoxy-(cyclic amino)-derivatives of macrolide antibiotics” (priority 1987, dated 1989).

Test [1] concerns Escherichia coli N10. Briefly: MIC, standard agar-dilution assay (Table IX). The test is classed as cell-based. The conditions noted are these: read-out: MIC.
Test [2] concerns Streptococcus pneumoniae Park I. Briefly: MIC, standard agar-dilution assay (Table IX). As to conditions: Streptococcus pneumoniae Park I; agar-dilution; read-out: MIC. It counts as cell-based.
Test [3] has as its system Staphylococcus aureus X400. Kind of test: MIC, standard agar-dilution assay (Table IX). It counts as cell-based. The conditions noted are these: Staphylococcus aureus X400, Methicillin-resistant strain, read-out: MIC.
Test [4] relates to Mycoplasma gallisepticum 29C. Kind of test: MIC, broth-dilution microtiter test (Table X). The conditions noted are these: Mycoplasmoides gallisepticum, read-out: MIC. The test is classed as cell-based. An excerpt:
(§1) The MIC's in Table X were obtained using conventional broth-dilution microtiter tests.

Test [5] deals with Pasteurella hemolytica 22C. Kind of test: MIC, broth-dilution microtiter test (Table X). The test is classed as cell-based. The conditions noted are these: read-out: MIC.
From the text: as §1

Test [6] has as its system Mycoplasma synoviae 40A. Briefly: MIC, broth-dilution microtiter test (Table X). The test is classed as cell-based. The conditions noted are these: Mycoplasmopsis synoviae, read-out: MIC.
From the text: as §1

Test [7] relates to Staphylococcus aureus 19C. Kind of test: MIC, broth-dilution microtiter test (Table X). The test is classed as cell-based.
From the text: as §1

Test [8] has as its system Pasteurella multocida 60A. Kind of test: MIC, broth-dilution microtiter test (Table X). The test is classed as cell-based. As to conditions: Avian isolate, read-out: MIC.
From the text: as §1

Test [9] relates to Streptococcus sp. 19F. Briefly: MIC, broth-dilution microtiter test (Table X). It counts as cell-based. As to conditions: read-out: MIC.
From the text: as §1

Test [10] relates to Mycoplasma hyorhinis 29E. Briefly: MIC, broth-dilution microtiter test (Table X). The test is classed as cell-based. As to conditions: read-out: MIC.
From the text: as §1

Test [11] concerns Mycoplasma hyopneumoniae S5972. Briefly: MIC, broth-dilution microtiter test (Table X). The test is classed as cell-based. As to conditions: Mesomycoplasma hyopneumoniae, read-out: MIC.
From the text: as §1

The subject of test [12] is Pasteurella multocida 17E. Briefly: MIC, broth-dilution microtiter test (Table X). It counts as cell-based. The conditions noted are these: Bovine isolate, read-out: MIC.
From the text: as §1

The subject of test [13] is Staphyloccus aureus X1.1. Kind of test: MIC, standard agar-dilution assay (Table IX). The test is classed as cell-based, Staphylococcus aureus. As to conditions: Staphylococcus aureus, read-out: MIC.
In test [14] the test system is Streptococcus Group D X66. Briefly: MIC, standard agar-dilution assay (Table IX). It counts as cell-based. As to conditions: read-out: MIC.
Test [15] concerns Escherichia coli TEM. Kind of test: MIC, standard agar-dilution assay (Table IX). The conditions noted are these: read-out: MIC. It counts as cell-based.
In test [16] the test system is Streptococcus Group D 2041. Briefly: MIC, standard agar-dilution assay (Table IX). The test is classed as cell-based. The conditions noted are these: GROUPD2041, read-out: MIC.
In test [17] the test system is Staphylococcus aureus S13E. Kind of test: MIC, standard agar-dilution assay (Table IX). The conditions noted are these: Staphylococcus aureus, S13E. It counts as cell-based.
The test system of test [18] is Haemophilus influenzae 76. Briefly: MIC, standard agar-dilution assay (Table IX). It counts as cell-based. The conditions noted are these: Haemophilus influenzae 76, Ampicillin-resistant strain, read-out: MIC.
The test system of test [19] is Streptococcus pyogenes C203. Kind of test: MIC, standard agar-dilution assay (Table IX). It counts as cell-based. The conditions noted are these: read-out: MIC.
Test [20] concerns Haemophilus influenzae C.L. Kind of test: MIC, standard agar-dilution assay (Table IX). It counts as cell-based. The conditions noted are these: Ampicillin-sensitive strain, read-out: MIC.
Test [21] concerns Staphylococcus epidermidis EPI1. Kind of test: MIC, standard agar-dilution assay (Table IX). The test is classed as cell-based. The conditions noted are these: Staphylococcus epidermidis EPI1; agar-dilution; read-out: MIC.
In test [22] the test system is Staphylococcus aureus V41. Briefly: MIC, standard agar-dilution assay (Table IX). As to conditions: Staphylococcus aureus V41, Penicillin-resistant strain, read-out: MIC. It counts as cell-based.
For test [23], the system named is Klebsiella X26. Briefly: MIC, standard agar-dilution assay (Table IX). The test is classed as cell-based. The conditions noted are these: read-out: MIC.
The subject of test [24] is Escherichia coli EC14. Kind of test: MIC, standard agar-dilution assay (Table IX). The test is classed as cell-based. As to conditions: read-out: MIC.
The subject of test [25] is Staphylococcus epidermidis 222. Kind of test: MIC, standard agar-dilution assay (Table IX). The conditions noted are these: read-out: MIC. It counts as cell-based.
Test [26] relates to Pasteurella multocida. Kind of test: Pasteurella infection in one-day-old chicks, medicated drinking water (Table XIII). It counts as in vivo. The conditions noted are these: Administered in the available drinking water at 2 g/gal. The method, boiled down:
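Oral dosing was by medicated drinking water (2 g/gal), offered from 4–20 h pre-infection and through a 3-day observation period. The chicks, one day old, were infected s.c. with 0.1 ml of a 10^-4-diluted, 20-h tryptose broth culture of avian Pasteurella multocida.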

The test system of test [27] is Streptococcus pyogenes C203. Kind of test: ED50 in mice experimentally infected with S. pyogenes C203 (Table XI). It counts as in vivo. The conditions noted are these: Streptococcus pyogenes, doses given 1 and 4 hours postinfection, read-out: ED50. The method, boiled down: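 Protective ED50 (mg/kg × 2) was determined as the dose sparing half the animals. Test compound was given twice, at 1 and 4 hours after experimental S. pyogenes C203 infection of mice.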

Molecules are shown by their SMILES. Values after ≈ are worked out from the molar mass of the structure shown. Where two headings read alike, the source gives them in different places.

In the case of `CCC1OC(=O)CC(O)C(C)C(OC2OC(C)C(O)C(N(C)C)C2O)C(CCN2CCc3ccccc32)CC(C)C(=O)C=CC(C)=CC1COC1OC(C)C(O)C(OC)C1OC` (stereo not shown) [Compound D42], the MIC is more than 128 µg/mL in test [1]; 0.25 µg/mL (≈ 0.286 µM) in test [2]; 0.5 µg/mL (≈ 0.571 µM) in test [3]; 0.097 µg/mL (≈ 0.111 µM) in test [4]; 50 µg/mL (≈ 57.1 µM) in [5]; 0.195 µg/mL (≈ 0.223 µM) in [6]. The MIC in test [7] came out at 0.78 µg/mL (≈ 0.891 µM); in test [8], 25 µg/mL (≈ 28.6 µM); in test [9] it was 0.78 µg/mL (≈ 0.891 µM); in test [10], 3.12 µg/mL (≈ 3.57 µM); in test [11], 0.097 µg/mL (≈ 0.111 µM); in test [12] it was 12.5 µg/mL (≈ 14.3 µM). For the same compound, the MIC in test [13] was 5 µg/mL (≈ 5.71 µM); in test [14] it was 2 µg/mL (≈ 2.29 µM); in test [15] it was more than 128 µg/mL; in [16], 2 µg/mL (≈ 2.29 µM); in [17] it was 0.5 µg/mL (≈ 0.571 µM); in test [18], 8 µg/mL (≈ 9.14 µM). The MIC in [19] was 0.5 µg/mL (≈ 0.571 µM); in [20] it was 16 µg/mL (≈ 18.3 µM); in test [21], 0.5 µg/mL (≈ 0.571 µM); in [22], 0.25 µg/mL (≈ 0.286 µM); in [23] it was 64 µg/mL (≈ 73.1 µM); in [24], more than 128 µg/mL. The MIC in test [25] was found to be 0.25 µg/mL (≈ 0.286 µM).

Regarding `CCC1OC(=O)CC(O)C(C)C(OC2OC(C)C(O)C(N(C)C)C2O)C(CCN2CC3CCC(C3)C2)CC(C)C(=O)C=CC(C)=CC1COC1OC(C)C(O)C(OC)C1OC` (stereo not shown) [Compound D46], the MIC in [4] stood at 0.195 µg/mL (≈ 0.225 µM); in [5], 6.25 µg/mL (≈ 7.21 µM); in [6] it was 1.56 µg/mL (≈ 1.8 µM); in test [7], 3.12 µg/mL (≈ 3.6 µM); in test [8], 12.5 µg/mL (≈ 14.4 µM); in [9], 1.56 µg/mL (≈ 1.8 µM). The values for the MIC in test [10], in test [11] and in test [12] were 25 µg/mL (≈ 28.8 µM), 3.12 µg/mL (≈ 3.6 µM) and 6.25 µg/mL (≈ 7.21 µM), respectively. For the same compound, in test [26], the “Number of Deaths/Number Treated” value was 3/10.

For the compound `CCC1OC(=O)CC(O)C(C)C(OC2OC(C)C(O)C(N(C)C)C2O)C(CCN2CCC3(CCCCC3)CC2)CC(C)C(=O)C=CC(C)=CC1COC1OC(C)C(O)C(OC)C1OC` (stereo not shown) [Compound D43], the ED50 (as a rule, the dose that gives a 50% effect, or the effect in half of the subjects) was 8 mg/kg in test [27] (C203, Oral) and 1.34 mg/kg in test [27] (C203, sc, Subcutaneous). The MIC in test [4] is 0.195 µg/mL (≈ 0.214 µM); in test [5], 6.25 µg/mL (≈ 6.87 µM); in test [6], less than 0.048 µg/mL; in test [7] it was 1.56 µg/mL (≈ 1.72 µM); in [8], 6.25 µg/mL (≈ 6.87 µM); in test [9], 1.56 µg/mL (≈ 1.72 µM). Further, the values for the MIC in [10], in test [11] and in [12] were 25 µg/mL (≈ 27.5 µM), 0.78 µg/mL (≈ 0.858 µM) and 6.25 µg/mL (≈ 6.87 µM), respectively.
